{
  "source": "patent US7998935B2",
  "about": "“Quinaldine based semisquaraines and squaraine dyes, process for preparation thereof and use thereof” (Council of Scientific and Industrial Research, priority 2006, dated 2011)",
  "key": {"[1]": {"experiment": "Absorption and fluorescence emission spectra (photophysical properties)", "assay_type": "physicochemical", "excerpt": "Semisquaraine of the general formula 1 in which a quinaldine moiety is linked to the squaric acid through methylene bridge have absorption around 480 nm with high molar extinction coefficient (4.0×10^4 M^−1 cm^−1) which depends on the substitution on the quanaldine unit. […] The absorption and fluorescence emission spectra of representative semisquaraine of the general formula 1 where X=OH, Y=H, Z=H, R^2=CH3 are shown in FIG. 1.\nSimilar to the semisquaraines the absorption spectra of these dyes were also dependent on the substitution on the quinaldine moiety. […] The presence of electron withdrawing groups in the quinaldine ring shifts the absorption maxima towards the blue region. […] The absorption and fluorescence emission spectra of representative symmetrical squaraine dye of the general formula 2, where X=I, Y=H, R^2=CH3 are shown in FIG. 2.\nThe absorption and fluorescence emission spectra of representative unsymmetrical squaraine dyes of the general formula 3, where X=C6H11O6, Y=H, Q=I, Z=H, R^2=CH3, are shown in FIG. 4."}, "[2]": {"test_system": "L1210 mouse lymphoma cells", "experiment": "Photocytotoxicity of squaraine dyes with and without visible light (cell survival / proliferation)", "assay_type": "cell-based", "conditions": "for toxicity in the dark: absence of light; for photocytotoxicity (% of cell survival with increasing concentration of dye): under illumination (visible light, 1000 W halogen lamp), on ice", "description": "FIG. 5: Photocytotoxicity of the squaraine dyes of general formula 2, where X=I, Y=H, R^2=CH3, and general formula 3, where X=OH, Y=H, Q=I, Z=H, R^2=CH3 in L1210 mouse lymphoma cells. Data gives the number of cell (% of controls) counted after 48 h after the treatment for 22.5 min at 0° C. with various concentrations of the squaraine dyes under dark and under irradiation. Data points represent the mean of three independent experiments (±SD).\nFIG. 6: Photocytotoxicity of the sugar linked and cholesterol-squaraine dyes of general formula 3, where X=C6H11O6, Y=H, Q=I, Z=H, R^2=CH3 and where X=C27H43O3, Y=H, Q=I, Z=H, R^2=CH3 L1210 mouse lymphoma cells. Data gives the number of cell (% of controls) counted after 48 h after the treatment for 22.5 min at 0° C. with various concentrations of the squaraine derivatives under dark and under irradiation. Data points represent the mean of three independent experiments (±SD).\nIn order to analyze the cytotoxicity of the squaraine dyes of the general formula 2 wherein X=I, Y=H, R^2=CH3 and 3 wherein X=OH, Y=H, Q=I, Z=H, R^2=CH3, with and without visible light, the cloning efficiencies of L1210 mouse lymphoma cells exposed to various concentrations of the dyes were determined. The light exposure was carried out from a 1000 W halogen lamp at a distance of 33 cm in Ca^2+ and Mg^2+ free PBS (140 mM NaCl, 3 mM KCl, 8 mM […], pH 7.4) on ice (10^6 cells/mL). Illumination for 10 min corresponds to 225 kJ/m^2 between 400 and 800 nm. The cells were pelleted by centrifugation and resuspended in PBSG three times. The cells were resuspended at 3×10^4 cells/mL in fresh medium at 37° C. and the numbers of cells were counted repeatedly for 60 h. From the exponential part of the growth curves (between 24 and 60 h) the number of proliferating cells at the time of resuspension was calculated by extrapolation. Cell survival was defined as the ratio between proliferating and resuspended cells. Results obtained with representative quinaldine based squaraine dyes of the general formula 2 wherein X=I, Y=H, R^2=CH3 and 3 wherein X=OH, Y=H, Q=I, Z=H, are shown in FIG. 5.\nThe cytotoxicity induced by squaraine dyes of the general formula 3 wherein X=C6H11O6, Y=H, Q=I, Z=H, R^2=CH3 and X=C27H43O3, Y=H, Q=I, Z=H, R^2=CH3 in mouse lymphoma cells L1210 with and without visible light, was carried out as explained in EXAMPLE 8. Results obtained with representative quinaldine based squaraine dyes of the general formula 3 wherein X=C6H11O6, Y=H, Q=I, Z=H, R^2=CH3 and X=C27H43O3, Y=H, Q=I, Z=H, R^2=CH3 are shown in FIG. 6."}, "mammalian AS52 cells": {"test_system": "mammalian AS52 cells", "experiment": "Cytotoxicity in the presence and absence of light", "assay_type": "cell-based", "excerpt": "In the present invention, we have investigated the cytotoxicity of these dyes in mammalian AS52 cells both in the presence and absence of light."}},
  "data": [
    {"smiles": "CCCCOc1c(C=C2C=Cc3cc(OCC)ccc3N2C)c(=O)c1=O", "values": [
      {"measurement": "absorption maxima", "setting": "[1]; in methanol", "value": 478, "unit": "nm"}
    ]},
    {"smiles": "CCCCOc1c(C=C2C=Cc3cc(O)ccc3N2C)c(=O)c1=O", "values": [
      {"measurement": "absorption maxima", "setting": "[1]; in methanol", "value": 477, "unit": "nm"}
    ]},
    {"smiles": "CN1/C(=C/C2=C([O-])C(=C\\c3ccc4cc(I)ccc4[n+]3C)/C2=O)C=Cc2cc(I)ccc21", "values": [
      {"measurement": "toxicity in the dark", "setting": "[2]", "value": "less toxic in the dark"},
      {"measurement": "photocytotoxicity (% of cell survival with increasing concentration of dye)", "setting": "[2]", "value": "dose dependent photocytotoxicity"},
      {"measurement": "absorption maxima", "setting": "[1]; in DMSO", "value": "around 750 nm"},
      {"measurement": "emission maxima", "setting": "[1]; in dimethyl sulfoxide (DMSO)", "value": "around 772 nm"}
    ]},
    {"smiles": "CN1/C(=C/C2=C([O-])C(=C\\c3ccc4cc(O[C@@H]5O[C@H](CO)[C@@H](O)[C@H](O)[C@H]5O)ccc4[n+]3C)/C2=O)C=Cc2cc(I)ccc21", "values": [
      {"measurement": "cytotoxicity compared with diiodo squaraine dye of general formula 2 (X=I)", "setting": "mammalian AS52 cells", "value": "more cytotoxic"},
      {"measurement": "cytotoxicity compared with hydroxyl-substituted squaraine dye of general formula 3 (X=OH)", "setting": "mammalian AS52 cells", "value": "significantly high"},
      {"measurement": "toxicity in the dark", "setting": "[2]", "value": "very less toxicity in the absence of light"},
      {"measurement": "photocytotoxicity (% of cell survival with increasing concentration of dye)", "setting": "[2]", "value": "dose dependent photocytotoxicity"}
    ]},
    {"smiles": "CN1/C(=C/C2=C([O-])C(=C\\c3ccc4cc(O)ccc4[n+]3C)/C2=O)C=Cc2cc(I)ccc21", "values": [
      {"measurement": "toxicity in the dark", "setting": "[2]", "value": "less toxic in the dark"},
      {"measurement": "photocytotoxicity (% of cell survival with increasing concentration of dye)", "setting": "[2]", "value": "dose dependent photocytotoxicity"}
    ]}
  ]
}
